In US20170348280A1 (priority 2016, published 2017):
Like-named read-outs stand apart in the source and are kept apart here.

Legend:
[1] = test system: ECM deposition of collagen type IV by AoSMC; assay: ECM deposition of collagen type IV by AoSMC (immunoassay); assay type: cell-based, human; settings: for decrease in ascorbyl palmitate dependent ECM deposition of collagen IV / reduction of ascorbic acid dependent deposition of collagen type IV to the ECM: 50 μM nifedipine; for increased collagen IV deposition: compared to 1.25 μM
Procedure: (§1) Both cell cultures were maintained in DMEM medium (ATCC) containing antibiotics and 5% fetal bovine serum (FBS, ATCC). All cell cultures were maintained at 37° C. and 5% CO2 atmosphere. Cell viability was monitored with MTT assay.
(§2) Collagen production by human cultured cells: In the case of these experiments, DF or AoSMC, at 5th to 8th passages, were seeded on collagen type I-covered plastic plates (Becton-Dickinson, collagen I isolated from rat tail tendon) at density of 25,000/cm^2 and grown to confluence for 5-7 days. […] Tested compounds were added to cells at indicated concentrations for 72 h in DMEM supplemented with 2% FBS and cell-produced extracellular matrix was exposed by sequential treatment with 0.5% Triton X100 and 20 mM ammonium […] in phosphate buffered saline (PBS, Life Technologies) for 3 min each at room temperature. After four washes with PBS, ECM layers were treated with 1% bovine serum albumin (BSA) in PBS for one hour at room temperature and immediately used in experiments.
(§3) Collagen and beta-actin immunoassays: Immunoassays were done by sequential incubation with primary monoclonal antibodies specific to human collagen type I or IV or human beta-actin in 1% BSA/PBS for 2 hours followed by 1 hour incubation with secondary goat anti-mouse IgG antibodies labeled with horse radish peroxidase (HRP).
(§4) Differences between samples were estimated with a two-tailed Student's t-test using MedCalc software (Mariakerke, Belgium) and accepted as significant at p levels less than 0.05.

[2] = cited from earlier work
[3] = test system: ECM deposition of collagen type I by cultured AoSMC; assay: ECM deposition of collagen type I by cultured AoSMC (immunoassay); settings: for reduction of ascorbyl palmitate dependent deposition of collagen type 1 to the ECM / reduction of ascorbic acid dependent deposition of collagen type 1 to the ECM: 50 μM nifedipine
[4] = test system: intracellular content of collagen type I in AoSMC; assay: Intracellular content of collagen type I in AoSMC (immunoassay); assay type: cell-based, human; settings: for reduction of ascorbate-dependent intracellular collagen type 1 synthesis: 50 μM nifedipine; for reduction of ascorbate-dependent collagen type 1 synthesis: nifedipine
Procedure: as §1, §2, §3, §4

[5] = test system: intracellular content of beta-Actin in AoSMC; assay: Intracellular content of beta-actin in AoSMC (immunoassay); assay type: cell-based, human; settings: for reduction of ascorbate-dependent beta-actin intracellular content compared to control: 50 μM nifedipine; for reduction of intracellular beta actin content: nifedipine
Procedure: as §1, §2, §3, §4

[6] = test system: intracellular content of collagen type I normalized to beta actin content in aortic smooth muscle cells; assay: Intracellular collagen type I normalized by beta actin content in AoSMC; assay type: cell-based, human; settings: for reduction of intracellular content of collagen type I normalized to beta actin content compared to the control: 50 μM nifedipine
Procedure: as §2, §3, §4

[7] = test system: ascorbate accumulation inside human AoSMC; assay: Intracellular ascorbic acid assay in AoSMC; assay type: cell-based
Procedure: Cells were washed briefly three times with ice-cold PBS on ice and incubated with 300 μl of 0.1% saponin in 1% ethanol in PBS for 10 min on an orbit mixer. Samples were collected to Eppendorf tubes and centrifuged at 13,000×g for 5 min. Supernatants were used in an ascorbic acid assay (Ascorbic Acid Colorimetric Assay Kit […], BioVision) in accordance with the manufacturer's protocol. […] Differences between samples were estimated with a two-tailed Student's t-test using MedCalc software ([…], Belgium) and accepted as significant at p levels less than 0.05.

cultured fibroblasts = assay: Cell viability / cytotoxicity (MTT assay), fibroblasts; assay type: cell-based, human; settings: data not shown
Procedure: as §1

smooth muscle cells = assay: Cell viability / cytotoxicity (MTT assay), smooth muscle cells; assay type: cell-based, human; settings: cultured smooth muscle cells; data not shown
Procedure: as §1

[8] = test system: collagen type I ECM deposition by cultured human skin fibroblasts; assay: Collagen type I ECM deposition by cultured human skin fibroblasts (immunoassay); assay type: cell-based; settings: channel blocker alone, without ascorbate; 72 h; FIG. 1A-1F
Procedure: as §1, §2
as §3, with “(HRP). […]” for “(HRP).”

[9] = test system: human vascular smooth muscle cells and fibroblasts; settings: cited from earlier work
[10] = 100 μM ascorbic acid compared to 25 μM ascorbic acid
[11] = 400 μM ascorbic acid compared to 25 μM ascorbic acid

For `O=C1O[C@H]([C@@H](O)CO)C(O)=C1O` [ascorbic acid], the “increased collagen IV ECM deposition” value [1, 10] is listed as 175%, the “increased collagen IV ECM deposition” value [1, 11] is listed as 166% and the excretion half-life ([2]; body stores depleted, by the onset of the first symptoms of scurvy) is listed as 83 days. The “renal resorption threshold (plasma level)” value ([2]; men) was “about 1.5 mg/dL”, the “half-life of excretion in the urine” value ([2]; plasma concentrations larger than renal resorption threshold) was “about 30 minutes” and the “renal resorption threshold (plasma level)” value ([2]; women) was roughly 1.3 mg/dL. The “increase of collagen type 1 ECM deposition” value [3, 10] was 114% and the “increase of collagen type 1 ECM deposition” value [3, 11] was 176%.

In the case of `COC(=O)C1=C(C)NC(C)=C(C(=O)OC)C1c1ccccc1[N+](=O)[O-]` [nifedipine], the “decrease in ascorbyl palmitate dependent ECM deposition of collagen IV” value (shortened to “decrease … of collagen IV”) ([1]; 1.25 μM ascorbyl palmitate) is reported as 23.5%, the “decrease … of collagen IV” value ([1]; 2.5 μM ascorbyl palmitate) is reported as 22.7% and the “decrease … of collagen IV” value ([1]; 5 μM ascorbyl palmitate) is reported as 22%. For the same compound, the “decrease … of collagen IV” value ([1]; 10 μM ascorbyl palmitate) was 13.5%, the “decrease … of collagen IV” value ([1]; 20 μM ascorbyl palmitate) was 31.6% and the “reduction of ascorbic acid dependent deposition of collagen type IV to the ECM” value (“reduction … of collagen type IV to the ECM” for short) ([1]; 25 μM ascorbic acid) was 36%. The “reduction … of collagen type IV to the ECM” value ([1]; 100 μM ascorbic acid) was 54%, the “reduction … of collagen type IV to the ECM” value ([1]; 400 μM ascorbic acid) was 43% and the “reduction of ascorbate-dependent intracellular collagen type 1 synthesis” value ([4]; 25 μM ascorbic acid) was 61%. For the same compound, the “reduction of ascorbate-dependent intracellular collagen type 1 synthesis” value ([4]; 100 μM ascorbic acid) was 49.1%, the “increase of intracellular collagen I compared to control” value ([4]; nifedipine with 400 μM ascorbic acid) was 122% and the “reduction of ascorbate-dependent collagen type 1 synthesis” value ([4]; ascorbyl palmitate at 5 (unit not given)) was 20.3%. For the same compound, the “reduction of ascorbate-dependent collagen type 1 synthesis” value ([4]; ascorbyl palmitate at 20 (unit not given)) was 38%, the “reduction of ascorbate-dependent beta-actin intracellular content compared to control” value (shortened to “reduction … to control”) ([5]; 25 μM ascorbic acid) was 29% and the “reduction … to control” value ([5]; 100 μM ascorbic acid) was 22.6%. For the same compound, the “reduction … to control” value ([5]; 400 μM ascorbic acid) was 5%, the “reduction of intracellular beta actin content” value ([5]; 5 μM ascorbyl palmitate) was 22% and the “reduction of intracellular beta actin content” value ([5]; 20 μM ascorbyl palmitate) was 23.6%. For the same compound, the “reduction of intracellular content of collagen type I normalized to beta actin content compared to the control” value ([6]; 25 μM ascorbic acid) was 46%, the “reduction of intracellular content of collagen type I normalized to beta actin content compared to the control” value ([6]; 100 μM ascorbic acid) was 34.4% and the “increase of collagen I (normalized to beta actin) compared to control” value ([6]; nifedipine, 400 μM ascorbic acid) was 23%. The “effect on collagen I content (normalized to beta actin)” value ([6]; nifedipine, ascorbyl palmitate at 5 μM and 20 μM) was “no significant effect”, the “effect on intracellular ascorbate levels” value [7] was “no significant effect” and the “decrease of intracellular ascorbate” value ([7]; 50 μM nifedipine, 100 μM ascorbic acid, 90 min) was 61.5%. The “reduction of ascorbate intracellular content” value ([7]; 50 μM nifedipine, 400 μM ascorbic acid, 90 min) was 67.7%, the “reduction of ascorbyl palmitate dependent deposition of collagen type 1 to the ECM” value ([3]; 1.25 μM ascorbyl palmitate) was 25% and the “reduction of ascorbyl palmitate dependent deposition of collagen type 1 to the ECM” value ([3]; 2.5 μM ascorbyl palmitate) was 38%. For the same compound, the “reduction of ascorbyl palmitate dependent deposition of collagen type 1 to the ECM” value ([3]; 5 μM ascorbyl palmitate) was 27.5%, the “reduction of ascorbyl palmitate dependent deposition of collagen type 1 to the ECM” value ([3]; 10 μM ascorbyl palmitate) was 11% and the “reduction of ascorbyl palmitate dependent deposition of collagen type 1 to the ECM” value ([3]; 20 μM ascorbyl palmitate) was 26.5%. The “reduction of ascorbic acid dependent deposition of collagen type 1 to the ECM” value ([3]; 25 μM ascorbic acid) was 62.3%, the “reduction of ascorbic acid dependent deposition of collagen type 1 to the ECM” value ([3]; 100 μM ascorbic acid) was 41.8% and the “reduction of ascorbic acid dependent deposition of collagen type 1 to the ECM” value ([3]; 400 μM ascorbic acid) was 16.5%.

In the case of `CCCCCCCCCCCCCCCC(=O)OC[C@H](O)[C@H]1OC(=O)C(O)=C1O` [ascorbyl palmitate], the “increased collagen IV deposition” value ([1]; 2.5 μM ascorbyl palmitate alone) is reported as 113%, the “increased collagen IV deposition” value ([1]; 5 μM ascorbyl palmitate alone) is reported as 144% and the “increased collagen IV deposition” value ([1]; 10 μM ascorbyl palmitate alone) is reported as 138%. For the same compound, the “increased collagen IV deposition” value ([1]; 20 μM ascorbyl palmitate alone) was 168%, the “higher intracellular levels of ascorbic acid compared to the highest concentration of ascorbic acid used (400)” value ([7]; supplementation with 20 ascorbyl palmitate (unit not given)) was 10 × and the “levels found to be cytotoxic” value (cultured fibroblasts) was “higher than 20 μM”. The “levels found to be cytotoxic” value (smooth muscle cells) was “higher than 20 μM”, the “increase of collagen type 1 ECM deposition” value ([3]; 2.5 μM ascorbyl palmitate administered individually, compared to 1.25 μM) was 135% and the “increase of collagen type 1 ECM deposition” value ([3]; 5 μM ascorbyl palmitate administered individually, compared to 1.25 μM) was 189%. For the same compound, the “increase of collagen type 1 ECM deposition” value ([3]; 10 μM ascorbyl palmitate administered individually, compared to 1.25 μM) was 184% and the “increase of collagen type 1 ECM deposition” value ([3]; 20 μM ascorbyl palmitate administered individually, compared to 1.25 μM) was 212%.

In the case of `C=C[C@H]1C[N@@]2CC[C@H]1C[C@@H]2[C@@H](O)c1ccnc2ccc(OC)cc12` [quinidine], the “effects on ascorbic acid dependent collagen type I and type IV deposition in AoSMC” value ([3]; compared with nifedipine, data not shown) is reported as “comparable results”.

With `COc1cc(CNC(=O)CCCC/C=C/C(C)C)ccc1O` [capsaicin] the “inhibition of collagen type I deposition to the ECM” value [8] was “slight, insignificant inhibition”.

In the case of `COc1ccc([C@@H]2Sc3ccccc3N(CCN(C)C)C(=O)[C@@H]2OC(C)=O)cc1` [ditiazem], the “inhibition of collagen type I deposition to the ECM” value [8] is given as “up to 13.1%” and the “constitutive and platelet-derived growth factor-dependent collagen deposition in the ECM” value [9] is given as “significantly decreased”.

In the case of `COc1ccc(CCN(C)CCCC(C#N)(c2ccc(OC)c(OC)c2)C(C)C)cc1OC` (stereo not drawn) [verapamil], the “constitutive and platelet-derived growth factor-dependent collagen deposition in the ECM” value [9] is listed as “significantly decreased”.
